Here are results for 22 compounds from patent publication US8431567B2 (Abbott GmbH & Co. KG, priority 2006, dated 2013).

SMILES strings stand for the structures. Counter-ions that a name gives are not always drawn.

The experiment deals with T1, human vasopressin V1b receptor (Homo sapiens, UniProt P47901).
T1 construct: expressed in transfected cells; host or cells: CHO-K1 (cell line hV1b_3H2_CHO), membrane preparation
T1 sequence (P47901 1-424): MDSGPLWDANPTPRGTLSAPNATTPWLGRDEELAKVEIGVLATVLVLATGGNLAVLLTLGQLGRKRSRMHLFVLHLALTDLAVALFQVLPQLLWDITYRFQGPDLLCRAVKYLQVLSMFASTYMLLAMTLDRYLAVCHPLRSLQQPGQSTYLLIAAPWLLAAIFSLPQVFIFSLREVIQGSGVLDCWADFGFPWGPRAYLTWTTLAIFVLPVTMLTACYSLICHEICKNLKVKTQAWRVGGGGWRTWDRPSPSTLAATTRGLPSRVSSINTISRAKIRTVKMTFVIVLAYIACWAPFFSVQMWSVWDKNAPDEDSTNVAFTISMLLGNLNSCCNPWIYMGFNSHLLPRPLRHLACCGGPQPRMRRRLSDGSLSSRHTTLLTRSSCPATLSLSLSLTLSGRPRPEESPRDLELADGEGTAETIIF
Put plainly: Vasopressin V1b receptor binding test. The settings on record: membranes of CHO-K1 cells, displacement of 1.5 nM 3H-AVP. The protocol:
• Vasopressin V1b Receptor Binding Test: • Substances:
The test substances were dissolved at a concentration of 10^−2 M in DMSO and diluted further in DMSO to 5×10^−4 M to 5×10^−9 M. These DMSO solutions were diluted 1:10 with test buffer. The concentration of substance was again diluted 1:5 in the test preparation.
The membrane pellet was homogenized and centrifuged again as described, and then taken up in 50 mM Tris-HCl, pH 7.4, homogenized and, frozen in aliquots, stored at −190° C. in liquid nitrogen.
The incubation buffer was: 50 mM Tris, 10 mM MgCl2, 0.1% BSA, pH 7.4. […] The nonspecific binding was determined with 1 μM AVP (Bachem #H1780). All determinations were performed in triplicate. After incubation (60 minutes at room temperature), the free radioligand was filtered off by vacuum filtration (Skatron cell harvester 7000) on Whatman GF/B glass-fibre filter mats and the filters were transferred to scintillation vessels. Liquid scintillation measurement was performed in a Tricarb instrument, Model 2000 or 2200CA (Packard). Conversion of the measured cpm to dpm was performed with the aid of a standard quench series.
The binding parameters were calculated by nonlinear regression in SAS.
For the compounds according to the invention, the affinities for the human vasopressin receptor V1b were measured according to the above test and the affinity constant (Ki) was determined.
`CCOc1ccccc1C1(N2CCN(c3cccnc3)CC2)C(=O)N(S(=O)(=O)c2ccc(OC)cc2OC)c2ccc(C#N)cc21` (stereo not shown) [Example 2, 5-Cyano-1-(2,4-dimethoxy-benzenesulphonyl)-3-(2-ethoxyphenyl)-3-(4-pyridin-3-yl-piperazin-1-yl)-2,3-dihydro-1H-indol-2-one] registered a Ki of 50 to 500 nM.
Next, `COc1ccc(C2(N3CCN(c4ccncc4)CC3)C(=O)N(S(=O)(=O)c3ccc(OC)cc3OC)c3ccc(Cl)cc32)c(OC)c1` (stereo not shown) [Example 30, 5-Chloro-1-(2,4-dimethoxy-benzenesulphonyl)-3-(2,4-dimethoxyphenyl)-3-(4-pyridin-4-yl-piperazin-1-yl)-1,3-dihydro-indol-2-one, HCl salt]: less than 50 nM; `COCc1ccccc1C1(N2CCN(c3ccncc3)CC2)C(=O)N(S(=O)(=O)c2ccc(OC)cc2OC)c2ccc(Cl)cc21` (stereo not shown) [Example 32, 5-Chloro-1-(2,4-dimethoxy-benzenesulphonyl)-3-(2-methoxymethylphenyl)-3-(4-pyridin-4-yl-piperazin-1-yl)-1,3-dihydro-indol-2-one]: 50 to 500 nM.
The compound `COc1ccc(S(=O)(=O)N2C(=O)C(c3ccccc3OC)(N3CCN(c4ccncc4)CC3)c3ccc(C)cc32)c(OC)c1` (stereo not shown) [Example 23, 1-(2,4-Dimethoxy-benzenesulphonyl)-3-(2-methoxyphenyl)-6-methyl-3-(4-pyridin-4-yl-piperazin-1-yl)-1,3-dihydro-indol-2-one] displayed a Ki of 50 to 500 nM.
`CCOc1ccccc1C1(N2CCN(c3ccnc(CC)c3)CC2)C(=O)N(S(=O)(=O)c2ccc(OC)cc2OC)c2ccc(C#N)cc21` (racemic) [Example 93, (±)-5-Cyano-1-(2,4-dimethoxy-benzenesulphonyl)-3-(2-ethoxyphenyl)-3-[4-(2-ethyl-pyridin-4-yl)-piperazin-1-yl]-2,3-dihydro-1H-indol-2-one]: the Ki is less than 50 nM.
The compound `CCOc1ccccc1C1(N2CCN(c3ccncc3)CC2)C(=O)N(S(=O)(=O)c2ccccc2OC)c2ccc(C#N)cc21` (stereo not shown) [Example 8, 5-Cyano-3-(2-ethoxyphenyl)-1-(2-methoxy-benzenesulphonyl)-3-(4-pyridin-4-yl-piperazin-1-yl)-2,3-dihydro-1H-indol-2-one] had a Ki of 50 to 500 nM.
Regarding `CCOc1ccc(OC)cc1C1(N2CCN(c3ccncc3)CC2)C(=O)N(S(=O)(=O)c2ccc(C#N)cc2)c2ccc(C#N)cc21` (stereo not shown) [Example 61, 5-Cyano-1-(4-cyano-benzenesulphonyl)-3-(2-ethoxy-5-methoxyphenyl)-3-(4-pyridin-4-yl-piperazin-1-yl)-2,3-dihydro-1H-indol-2-one], the Ki is 50 to 500 nM.
The compound `CCOc1ccccc1C1(N2CCN(c3ccncc3)CC2)C(=O)N(S(=O)(=O)c2ccc(OC(C)C)cc2)c2ccc(C#N)cc21` (stereo not shown) [Example 113, 5-Cyano-3-(2-ethoxyphenyl)-1-(4-isopropoxybenzenesulphonyl)-3-(4-pyridin-4-yl-piperazin-1-yl)-2,3-dihydro-1H-indol-2-one×trifluoroacetic acid] displayed a Ki of 50 to 500 nM.
For the compound `COc1ccc(S(=O)(=O)N2C(=O)C(c3cc(CN(C)C)ccc3OC)(N3CCN(c4ccncc4)CC3)c3cc(Cl)ccc32)c(OC)c1` (stereo not shown) [Example 25, 5-Chloro-1-(2,4-dimethoxy-benzenesulphonyl)-3-(5-dimethylaminomethyl-2-methoxyphenyl)-3-(4-pyridin-4-yl-piperazin-1-yl)-1,3-dihydro-indol-2-one], the Ki was 50 to 500 nM.
The result for `CCOc1ccccc1C1(N2CCN(c3ccncc3)CC2)C(=O)N(S(=O)(=O)c2ccc(OC(F)F)cc2)c2ccc(C#N)cc21` (racemic) [Example 87, (±)-5-Cyano-1-(4-difluoromethoxy-benzenesulphonyl)-3-(2-ethoxyphenyl)-3-(4-pyridin-4-yl-piperazin-1-yl)-2,3-dihydro-1H-indol-2-one] reads 50 to 500 nM; that for `COc1ccccc1C1(N2CCN(c3ccncc3)CC2)C(=O)N(S(=O)(=O)c2ccc(Cl)cc2)c2ccc(Cl)cc21` (stereo not shown) [Example 18, 5-Chloro-1-(4-chloro-benzenesulphonyl)-3-(2-methoxyphenyl)-3-(4-pyridin-4-yl-piperazin-1-yl)-1,3-dihydro-indol-2-one], 50 to 500 nM.
`COc1ccccc1C1(N2CCN(c3ccncc3)CC2)C(=O)N(S(=O)(=O)c2ccc(C#N)cc2)c2ccc(Cl)cc21` (stereo not shown) [Example 4, 4-[5-Chloro-3-(2-methoxyphenyl)-2-oxo-3-(4-pyridin-4-yl-piperazin-1-yl)-2,3-dihydro-indole-1-sulphonyl]-benzonitrile]: the Ki fell in the range of 50 to 500 nM.
Consider `CCOc1ccccc1C1(N2CCN(c3ccncc3)CC2)C(=O)N(S(=O)(=O)c2ccc(C(C)=O)cc2)c2ccc(C#N)cc21` (racemic) [Example 88, (±)-5-Cyano-1-(4-acetyl-benzenesulphonyl)-3-(2-ethoxyphenyl)-3-(4-pyridin-4-yl-piperazin-1-yl)-2,3-dihydro-1H-indol-2-one], for which the Ki was 50 to 500 nM.
In turn, `CCOc1ccc(OC)cc1C1(N2CCN(c3ccnc(C(C)C)c3)CC2)C(=O)N(S(=O)(=O)c2ccc(OC)cc2OC)c2ccc(C#N)cc21` (racemic) [Example 92, (±)-5-Cyano-1-(2,4-dimethoxy-benzenesulphonyl)-3-(2-ethoxy-5-methoxyphenyl)-3-[4-(2-isopropyl-pyridin-4-yl)-piperazin-1-yl]-2,3-dihydro-1H-indol-2-one] yielded a Ki of less than 50 nM.
Next, `CCOc1ccccc1C1(N2CCN(c3ccncc3)CC2)C(=O)N(S(=O)(=O)c2ccc(C)cc2F)c2ccc(C#N)cc21` (stereo not shown) [Example 115, 5-Cyano-3-(2-ethoxyphenyl)-1-(2-fluoro-4-methylbenzenesulphonyl)-3-(4-pyridin-4-yl-piperazin-1-yl)-2,3-dihydro-1H-indol-2-one]: 50 to 500 nM; `CCOc1ccc(S(=O)(=O)N2C(=O)C(c3ccccc3OCC)(N3CCN(c4ccncc4)CC3)c3cc(C#N)ccc32)c(OC)c1` (racemic) [Example 77, (±)-5-Cyano-1-(4-ethoxy-2-methoxy-benzenesulphonyl)-3-(2-ethoxyphenyl)-3-(4-pyridin-4-yl-piperazin-1-yl)-2,3-dihydro-1H-indol-2-one hydrochloride]: 50 to 500 nM; `CCOc1ccccc1C1(N2CCN(c3ccncc3)CC2)C(=O)N(S(=O)(=O)c2ccc(F)cc2F)c2ccc(C#N)cc21` (racemic) [Example 72, (±)-5-Cyano-1-(2,4-difluoro-benzenesulphonyl)-3-(2-ethoxyphenyl)-3-(4-pyridin-4-yl-piperazin-1-yl)-2,3-dihydro-1H-indol-2-one trifluoroacetate]: 50 to 500 nM.
For the compound `CCOc1c(OC)cccc1C1(N2CCN(c3ccnc(C(C)C)c3)CC2)C(=O)N(S(=O)(=O)c2ccc(OC)cc2OC)c2ccc(C#N)cc21` (stereo not shown) [Example 110, 5-Cyano-1-(2,4-dimethoxybenzenesulphonyl)-3-(2-ethoxy-3-methoxyphenyl)-3-[4-(2-isopropylpyridin-4-yl)-piperazin-1-yl]-2,3-dihydro-1H-indol-2-one×trifluoroacetic acid], the Ki is less than 50 nM.
The result for `CCOc1ccccc1C1(N2CCN(c3ccncc3)CC2)C(=O)N(S(=O)(=O)c2ccc(N)cc2)c2ccc(C#N)cc21` (racemic) [Example 84, (±)-5-Cyano-1-(4-amino-benzenesulphonyl)-3-(2-ethoxyphenyl)-3-(4-pyridin-4-yl-piperazin-1-yl)-2,3-dihydro-1H-indol-2-one] reads 50 to 500 nM; that for `CCOc1ccc(OC)cc1C1(NCCNc2ccncc2)C(=O)N(S(=O)(=O)c2ccc(OC)cc2OC)c2ccc(C#N)cc21` (stereo not shown) [Example 122, 5-Cyano-1-(2,4-dimethoxybenzenesulphonyl)-3-(2-ethoxy-5-methoxyphenyl)-3-[2-(pyridin-4-ylamino)-ethylamino]-2,3-dihydro-1H-indol-2-one], less than 50 nM; that for `COc1ccc(S(=O)(=O)N2C(=O)C(c3cc(F)ccc3OC)(N3CCN(c4ccncc4)CC3)c3cc(C#N)ccc32)c(OC)c1` (racemic) [Example 65, (±)-5-Cyano-1-(2,4-dimethoxy-benzenesulphonyl)-3-(5-fluoro-2-methoxyphenyl)-3-(4-pyridin-4-yl-piperazin-1-yl)-2,3-dihydro-1H-indol-2-one], 50 to 500 nM.
In turn, `CCOc1ccc(OC)cc1C1(N2CCCN(c3ccncc3)CC2)C(=O)N(S(=O)(=O)c2ccc(OC)cc2OC)c2ccc(C#N)cc21` (stereo not shown) [Example 60, 5-Cyano-1-(2,4-dimethoxy-benzenesulphonyl)-3-(2-ethoxy-5-methoxyphenyl)-3-(4-pyridin-4-yl-[1.4]diazepan-1-yl)-2,3-dihydro-1H-indol-2-one] came in with a Ki of less than 50 nM.

Broadly, the Ki is the dissociation constant of the complex between target and ligand, obtained from inhibition or displacement.
